Measured values from patent US20060029546A1, “Materials and methods for identifying anti-schizophrenic agents” (deCODE Genetics, Inc., priority 2004, published 2006).

Legend:
[1] = system: Fyn; test: Fyn phosphorylation in HEK293 cells stably expressing ErbB4 and Fyn-V5 (Western blot); type: cell-based
Description: (§1) To determine whether NRG1-induced activation of ErbB4 leads to Fyn phosphorylation, NRG1 exposure of HEK293 cells stably expressing ErbB4 and Fyn-V5 were activated with 7.2 nM NRG1 (R&D Systems; Minneapolis, Minn.) for 10 minutes and lysed using RIPA buffer. […] There was no change in Fyn Tyr531 phosphorylation. […] Fyn is activated either by dephophorylation of Tyr531 with loss of the SH2 domain interaction, or through displacement of the SH2 domain by a second tyrosine phosphorylated binding partner allowing auto-phosphorylation on the Fyn activation loop residue Tyr420. Alternatively, Fyn can be phosphorylated on Tyr420 and activated directly by a second kinase. Thus, the NRG1-stimulated increase in Fyn Tyr420 phosphorylation may be through stimulation of Fyn auto-phosphorylation, through phosphorylation of Fyn by ErbB4, or through phosphorylation of Fyn by an ErbB4 activated tyrosine kinase other than Fyn.
These alternatives were distinguished by applying PP2 (25 nM; Calbiochem, San Diego, Calif.) a relatively selective Src-family kinase inhibitor, to inhibit Fyn while ErbB4 signaling was stimulated with NRG1. […] Fyn was phosphorylated at a low level on Tyr420 under basal conditions. […] After NRG1 stimulation, an increase in Fyn Tyr420 phosphorylation was seen, even under conditions in which PP2 was used to inhibit p59 Fyn autophosphorylation. […]

[2] = system: ErbB4; test: ErbB4 tyrosine phosphorylation in HEK293 cells (Western blot); type: cell-based; conditions: for NRG1-induced ErbB4 tyrosine phosphorylation: cells expressing ErbB4 and Fyn, inhibitor 25 nM
Description: as §1
Thus, NRG1-induced ErbB4 phosphorylation under conditions in which Fyn and related Src-family kinases were inhibited by PP2 (selective Src-family kinase inhibitor described above). […] This may result in the creation of additional SH2 domain docking sites, thus leading to further activation of Fyn as part of a positive feedback mechanism involving NRG1, ErbB4 and Src-family kinases.

[3] = system: Fyn; conditions: cited from earlier work
[4] = system: NMDA receptor subunit NR2B; test: NR2B Tyr1472 phosphorylation in mouse hippocampal lysates (Western blot); type: in vivo
Description: To further characterize components of the NRG1/ErbB4 signaling pathway a-ErbB4 co-immunoprecipitates from mouse brain hippocampus were analyzed. […] Hippocampus tissue was isolated by manual dissection and homogenized in DOC buffer (20 μM ZnCl2, 50 mM Tris pH 9.0, 1% DOC) (1 ml/50 mg of tissue) containing protease and phosphatase inhibitors as above. 25U Benzonase Nuclease per 1 ml of lysate were added to each sample during a 60 minute incubation at 4° C. For SDS-PAGE and Western blot, sample protein content was determined using a BCA Protein Assay Reagent Kit (Pierce, Rockford, Ill.), adjusted to a final concentration of 2 μg/μl total protein in 1×SDS-PAGE sample buffer, and then 20-25 μg of protein was loaded per gel lane. For immunoprecipitation, samples were adjusted to a final concentration of 2 μg/μl total protein in DOC buffer. […]
It was hypothesized that NRG1^+/− and ErbB4^+/− mutant mice might show altered regulation of NMDA receptor subunit NR2B Tyr1472 phosphorylation related to their abnormal behavioral phenotype. Hippocampal lysates were analyzed as described in Example 1. It was determined that Tyr1472 of NR2B was hypo-phosphorylated in hippocampal lysates from 9 month old NRG1^+/− or ErbB4^+/− mutant mice as compared to age and sex matched C57B1/6 control mice (FIG. 3). […]

[5] = system: NRG1+/− mutant mice; test: Open field test; type: in vivo, mouse; conditions: single exposure
Description: NRG1 hypomorphic mutant mice (NRG1^+/−) are heterozygotic mice that have a mutant NRG1 allele in which the NRG1 exon encoding the transmembrane domain is disrupted in the heterozygote. These mice develop normally and breed well. […] Treatment of the NRG1^+/−mice with a clozapine (1 mg/kg), an atypical antipsychotic drug commonly used to treat schizophrenia, for 25 minutes prior to testing reversed the behavioral abnormality. […] In addition, it is known that the NRG1^+/− had 16% fewer functional NMDA receptors overall as compared to litter-mate controls as determined by MK-801 (NMDA antagonist) binding studies on forebrain homogenates (Steffanson et al., Am. J. Hum. Genet. 72: 83-7, 2003). Therefore, these mice are relevant as an in vivo model for schizophrenia.
Behavioral abnormality of NRG1^+/− mutant mice observed in the open field test is reversible with clozapine at a dose of 1 mg/kg i.p. The activity level of wild-type litter mate controls is not affected by that dose of clozapine. Thus, clozapine is not simply sedating at 1 mg/kg i.p., but has a selective effect on the behavioral abnormality of NRG1^+/− mutant mice. Reversal of the behavioral abnormality occurred rapidly within 25 minutes of a single exposure to clozapine.

Compound | basal Fyn Tyr420 phosphorylation ([1]; basal conditions, 24 hour preincubation, 25 nM) | NRG1 induced tyrosine phosphorylation ([2]; HEK293 cells expressing only ErbB4) | ErbB4 basal phosphorylation ([2]; absence of NRG1) | NRG1-induced ErbB4 tyrosine phosphorylation [2] | IC50 ([3]; read-out: Fyn inhibition IC50) [nM] | Fyn phosphorylation ([1]; control compound) | effect on Fyn ([3]; control kinase inhibitor) | increase of NR2B Tyr1472 phosphorylation ([4]; NRG1+/− mutant mice, 1 mg/kg i.p., 25 minutes after injection, normalized against total NR2B) | NR2B Tyr1472 phosphorylation ([4]; wild-type mice, same dose) | time to reversal of the behavioral abnormality [5] [min]
CC(C)(C)n1nc(-c2ccc(Cl)cc2)c2c(N)ncnc21 [PP2] | reduced | no effect | no effect | greatly reduced | […] |  |  |  |  | 
Nc1ncnc2c1cnn2-c1ccccc1 [PP3] |  |  |  | no effect |  | no effect | no effect on Fyn |  |  | 
CN1CCN(C2=Nc3cc(Cl)ccc3Nc3ccccc32)CC1 [clozapine] |  |  |  |  |  |  |  | 2.5-3 fold | no effect | ≤ 25
